Measured values published in US20230310428A1, “EGFR INHIBITOR AND PREPARATION METHOD AND USE THEREOF” (HONGYUN BIOTECH CO., LTD., priority 2020, published 2023).
Read-outs that look alike come from different tables or passages of the source.

Tests used:
Experiment in all cases: Growth inhibitory activity of compounds on BaF3 cell lines stably transfected with kinase (MTS, 48 h)
Format in all cases: cell-based
[1] = target: T1, various mutants of kinase EGFR (BaF3 cell lines stably transfected with kinase) (Homo sapiens, UniProt P00533, C797S/L858R/T790M)
T1 construct: expressed in transfected cells; host or cells: BaF3
T1 sequence (P00533 25-1210 T790M/C797S/L858R): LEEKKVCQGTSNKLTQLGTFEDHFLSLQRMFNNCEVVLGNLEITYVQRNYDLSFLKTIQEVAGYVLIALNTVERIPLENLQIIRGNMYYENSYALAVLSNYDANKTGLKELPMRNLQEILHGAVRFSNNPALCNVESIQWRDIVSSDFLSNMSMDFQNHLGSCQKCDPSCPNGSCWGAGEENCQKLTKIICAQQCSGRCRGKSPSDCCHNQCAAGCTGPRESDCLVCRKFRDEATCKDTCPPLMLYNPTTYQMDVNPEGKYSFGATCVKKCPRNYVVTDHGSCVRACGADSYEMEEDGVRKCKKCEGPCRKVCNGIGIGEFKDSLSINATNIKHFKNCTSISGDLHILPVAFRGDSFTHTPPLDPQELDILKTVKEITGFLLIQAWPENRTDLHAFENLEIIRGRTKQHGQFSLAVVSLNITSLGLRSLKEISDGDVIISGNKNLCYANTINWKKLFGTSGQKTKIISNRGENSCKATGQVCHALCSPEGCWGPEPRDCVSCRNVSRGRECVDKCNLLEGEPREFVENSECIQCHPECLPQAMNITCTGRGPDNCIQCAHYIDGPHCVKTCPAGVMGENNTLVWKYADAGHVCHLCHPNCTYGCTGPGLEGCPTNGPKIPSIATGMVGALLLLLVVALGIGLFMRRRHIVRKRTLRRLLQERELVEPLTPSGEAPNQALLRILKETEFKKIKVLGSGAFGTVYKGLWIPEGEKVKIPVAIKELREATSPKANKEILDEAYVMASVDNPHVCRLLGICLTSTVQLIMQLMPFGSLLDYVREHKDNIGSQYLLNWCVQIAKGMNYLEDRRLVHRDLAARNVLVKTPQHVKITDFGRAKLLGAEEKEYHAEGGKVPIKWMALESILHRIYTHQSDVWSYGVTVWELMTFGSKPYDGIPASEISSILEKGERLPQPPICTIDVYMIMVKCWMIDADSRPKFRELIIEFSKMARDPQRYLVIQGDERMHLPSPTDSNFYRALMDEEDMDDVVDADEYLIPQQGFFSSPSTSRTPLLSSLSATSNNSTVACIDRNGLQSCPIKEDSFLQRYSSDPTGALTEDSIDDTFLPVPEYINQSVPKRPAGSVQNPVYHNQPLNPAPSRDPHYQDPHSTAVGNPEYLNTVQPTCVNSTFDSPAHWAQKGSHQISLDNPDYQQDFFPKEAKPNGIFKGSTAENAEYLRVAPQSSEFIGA
Procedure: (§1) The activity of compounds against various mutants of kinase EGFR was evaluated by their effect of inhibiting growth of BaF3 cell lines stably transfected with kinase. The specific test method was given as follows:
(§2) 1) Culture medium: DMEM (Dulbecco’s modified eagle medium) or RPMI 1640 (containing 10% fetal bovine serum, 100 µg/mL ampicillin, 100 µg/mL streptomycin).
(§3) 2) Reagent: MTS reaction solution (containing 2 mg/mL of MTS [3-(4,5-dimethylthiazol-2-yl)-5-(3-carboxymethoxyphenyl)-2-(4-sulfophenyl)-2H-tetrazoliu m, inner Salt]; 100 µg/mL of PES ([…])).
(§4) 3) Compound test: cells were incubated into a 96-well culture plate, the volume of cytosol was 90 µL, and then 10 µL of the compound at each gradient concentration was added. That is, the highest concentration was 10 µM, which was diluted stepwise by ⅓, and 8 concentration points were set in total; 0.1% DMSO (dimethyl sulfoxide) was contained in the system. The cell plate with uniformly mixed compound was cultured in a cell culture incubator (37° C.; 5% CO2) for 48 h, then 20 µL of MTS reaction solution was added, uniformly mixed and incubated in the cell culture incubator (37° C.; 5% CO2) for 1-4 h. OD values at 490 nm were measured by a microplate reader (VARIOSKAN FLASH, Thermo). Two parallels were set in each group of experiments, with 0.1% (a final concentration) DMSO as a negative control, and a culture medium without cells and compounds as a blank control. The cell growth inhibition rate was calculated by the following formula: […]
(§5) 4) IC50 calculation: The semi-inhibitory concentration of the compounds acting on cells was calculated using GradPad Prism 5 software according to the measured cell growth inhibition rate.

[2] = target: T2, various mutants of kinase EGFR (BaF3 cell lines stably transfected with kinase) (Homo sapiens, UniProt P00533)
T2 construct: other: BaF3 cells stably transfected with EGFR Δ19Del; MTS, 48 h; other: BaF3 cell line stably transfected with EGFR Δ19Del
T2 sequence (P00533 with tags, fused parts or gaps DEL746-750): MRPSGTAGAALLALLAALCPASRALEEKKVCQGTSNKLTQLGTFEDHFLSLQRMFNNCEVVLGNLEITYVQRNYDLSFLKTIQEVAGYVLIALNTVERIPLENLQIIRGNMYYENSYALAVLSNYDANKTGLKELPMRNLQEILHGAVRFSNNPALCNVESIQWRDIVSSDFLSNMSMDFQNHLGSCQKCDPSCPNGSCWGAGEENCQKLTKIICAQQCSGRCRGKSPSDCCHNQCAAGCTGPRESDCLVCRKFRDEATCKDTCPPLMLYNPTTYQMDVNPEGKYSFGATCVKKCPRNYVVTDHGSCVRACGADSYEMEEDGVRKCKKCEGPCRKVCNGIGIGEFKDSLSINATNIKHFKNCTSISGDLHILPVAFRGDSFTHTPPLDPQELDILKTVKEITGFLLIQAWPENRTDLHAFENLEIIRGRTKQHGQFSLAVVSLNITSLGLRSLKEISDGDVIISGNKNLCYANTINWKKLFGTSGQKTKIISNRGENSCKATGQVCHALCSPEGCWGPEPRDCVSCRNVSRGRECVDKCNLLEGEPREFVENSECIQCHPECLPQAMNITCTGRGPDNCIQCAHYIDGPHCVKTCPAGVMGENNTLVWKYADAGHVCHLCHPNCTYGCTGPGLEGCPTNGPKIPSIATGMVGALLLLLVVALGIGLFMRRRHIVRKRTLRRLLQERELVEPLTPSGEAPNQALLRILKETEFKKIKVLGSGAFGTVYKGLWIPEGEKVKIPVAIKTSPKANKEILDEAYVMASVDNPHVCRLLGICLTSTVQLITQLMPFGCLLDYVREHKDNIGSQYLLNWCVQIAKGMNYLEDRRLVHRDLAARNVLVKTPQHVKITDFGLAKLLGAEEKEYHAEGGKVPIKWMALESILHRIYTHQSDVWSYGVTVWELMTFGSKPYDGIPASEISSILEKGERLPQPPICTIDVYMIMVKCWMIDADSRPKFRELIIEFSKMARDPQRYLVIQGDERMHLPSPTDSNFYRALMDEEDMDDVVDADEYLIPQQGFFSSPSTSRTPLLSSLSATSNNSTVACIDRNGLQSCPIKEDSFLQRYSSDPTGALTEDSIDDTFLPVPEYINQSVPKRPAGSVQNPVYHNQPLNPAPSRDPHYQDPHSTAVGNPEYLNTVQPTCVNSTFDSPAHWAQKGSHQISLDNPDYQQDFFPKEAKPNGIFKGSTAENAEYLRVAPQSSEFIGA
Procedure: as §1, §2, §3, §4, §5

[3] = target: T3, various mutants of kinase EGFR (BaF3 cell lines stably transfected with kinase) (Homo sapiens, UniProt P00533, L858R/T790M)
T3 construct: expressed in transfected cells; host or cells: BaF3
Procedure: as §1, §2, §3, §4, §5

[4] = target: T4, various mutants of kinase EGFR (BaF3 cell lines stably transfected with kinase) (Homo sapiens, UniProt P00533, T790M/C797S, form not given)
T4 construct: other: BaF3 cells stably transfected with EGFR Δ19Del/T790M/C797S; MTS, 48; other: BaF3 cell line stably transfected with EGFR Δ19Del/T790M/C7
T4 sequence (P00533 with tags, fused parts or gaps DEL746-750/T790M/C797S, form open): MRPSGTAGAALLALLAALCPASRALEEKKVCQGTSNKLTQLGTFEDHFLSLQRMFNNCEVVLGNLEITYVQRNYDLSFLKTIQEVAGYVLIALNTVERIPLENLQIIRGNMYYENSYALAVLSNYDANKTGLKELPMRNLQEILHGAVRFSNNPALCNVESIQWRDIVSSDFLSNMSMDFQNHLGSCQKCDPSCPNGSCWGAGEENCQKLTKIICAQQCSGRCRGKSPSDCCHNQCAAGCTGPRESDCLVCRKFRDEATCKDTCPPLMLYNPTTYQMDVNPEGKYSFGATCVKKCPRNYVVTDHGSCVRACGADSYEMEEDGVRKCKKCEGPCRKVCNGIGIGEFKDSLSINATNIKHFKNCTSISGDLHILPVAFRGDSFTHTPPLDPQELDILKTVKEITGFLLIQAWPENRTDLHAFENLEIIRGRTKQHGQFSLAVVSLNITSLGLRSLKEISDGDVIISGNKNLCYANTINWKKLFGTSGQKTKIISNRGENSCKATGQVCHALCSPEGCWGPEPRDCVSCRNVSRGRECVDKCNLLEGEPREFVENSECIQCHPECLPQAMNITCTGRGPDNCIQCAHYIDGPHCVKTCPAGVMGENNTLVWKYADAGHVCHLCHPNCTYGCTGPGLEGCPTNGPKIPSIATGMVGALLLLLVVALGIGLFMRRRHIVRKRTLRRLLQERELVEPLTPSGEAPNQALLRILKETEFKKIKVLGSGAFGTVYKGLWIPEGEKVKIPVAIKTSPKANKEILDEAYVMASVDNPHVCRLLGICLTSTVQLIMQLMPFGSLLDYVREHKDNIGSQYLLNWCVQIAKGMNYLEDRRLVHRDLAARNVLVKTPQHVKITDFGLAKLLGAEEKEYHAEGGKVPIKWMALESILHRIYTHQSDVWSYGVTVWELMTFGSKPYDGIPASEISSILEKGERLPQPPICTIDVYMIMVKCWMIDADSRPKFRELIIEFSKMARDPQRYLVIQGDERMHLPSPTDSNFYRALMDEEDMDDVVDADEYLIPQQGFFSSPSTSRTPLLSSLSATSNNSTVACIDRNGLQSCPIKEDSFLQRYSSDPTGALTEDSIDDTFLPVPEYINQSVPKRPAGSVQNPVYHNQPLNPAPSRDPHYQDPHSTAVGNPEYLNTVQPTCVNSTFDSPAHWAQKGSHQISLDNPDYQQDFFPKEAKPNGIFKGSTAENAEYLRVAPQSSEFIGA
Procedure: as §1, §2, §3, §4, §5

[5] = target: T5, various mutants of kinase EGFR (BaF3 cell lines stably transfected with kinase) (Homo sapiens, UniProt P00533, T790M, form not given)
T5 construct: other: BaF3 cells stably transfected with EGFR Δ19Del/T790M; MTS, 48 h; other: BaF3 cell line stably transfected with EGFR Δ19Del/T790M; MTS, 48
T5 sequence (P00533 with tags, fused parts or gaps DEL746-750/T790M, form open): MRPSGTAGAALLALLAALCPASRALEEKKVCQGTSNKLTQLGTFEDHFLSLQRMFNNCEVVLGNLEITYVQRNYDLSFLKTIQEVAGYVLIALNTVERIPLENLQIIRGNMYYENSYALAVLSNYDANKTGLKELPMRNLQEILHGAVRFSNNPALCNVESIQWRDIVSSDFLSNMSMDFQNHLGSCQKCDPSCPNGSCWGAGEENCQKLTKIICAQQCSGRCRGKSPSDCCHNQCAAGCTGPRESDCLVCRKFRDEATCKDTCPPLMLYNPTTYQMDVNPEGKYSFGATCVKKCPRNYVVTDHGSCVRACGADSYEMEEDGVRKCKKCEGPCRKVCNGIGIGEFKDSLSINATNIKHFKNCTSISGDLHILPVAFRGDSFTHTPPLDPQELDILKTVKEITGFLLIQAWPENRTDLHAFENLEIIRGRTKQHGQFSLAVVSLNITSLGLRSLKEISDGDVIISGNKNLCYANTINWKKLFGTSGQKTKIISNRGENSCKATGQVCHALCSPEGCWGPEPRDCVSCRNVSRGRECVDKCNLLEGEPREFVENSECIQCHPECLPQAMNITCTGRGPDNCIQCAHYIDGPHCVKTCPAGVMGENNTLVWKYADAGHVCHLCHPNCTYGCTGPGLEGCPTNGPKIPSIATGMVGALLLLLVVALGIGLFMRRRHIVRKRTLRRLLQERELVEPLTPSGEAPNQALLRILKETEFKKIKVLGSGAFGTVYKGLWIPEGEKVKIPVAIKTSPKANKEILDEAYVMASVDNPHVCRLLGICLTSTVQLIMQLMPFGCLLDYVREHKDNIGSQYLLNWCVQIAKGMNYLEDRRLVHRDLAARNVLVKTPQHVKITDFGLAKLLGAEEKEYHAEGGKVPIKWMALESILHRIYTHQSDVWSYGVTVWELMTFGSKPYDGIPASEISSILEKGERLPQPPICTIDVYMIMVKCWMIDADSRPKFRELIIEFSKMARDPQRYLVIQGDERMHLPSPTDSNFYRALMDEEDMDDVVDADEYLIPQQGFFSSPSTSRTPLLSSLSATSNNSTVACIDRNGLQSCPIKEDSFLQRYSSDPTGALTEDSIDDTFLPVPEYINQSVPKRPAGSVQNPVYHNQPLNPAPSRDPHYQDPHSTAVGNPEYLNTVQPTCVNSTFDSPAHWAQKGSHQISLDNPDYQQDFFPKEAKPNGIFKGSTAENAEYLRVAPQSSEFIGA
Procedure: as §1, §2, §3, §4, §5

[6] = target: T6, various mutants of kinase EGFR (BaF3 cell lines stably transfected with kinase) (Homo sapiens, UniProt P00533, L858R)
T6 construct: expressed in transfected cells; host or cells: BaF3
Procedure: as §1, §2, §3, §4, §5

[7] = BaF3 cells stably transfected with EGFR L858R/T790M/C797S, read-out: IC50, growth inhibition, L858R/T790M/C797S
[8] = BaF3 cells stably transfected with EGFR Δ19Del, read-out: IC50, growth inhibition, Δ19Del
[9] = BaF3 cells stably transfected with EGFR L858R/T790M, read-out: IC50, growth inhibition, L858R/T790M
[10] = BaF3 cells stably transfected with EGFR Δ19Del/T790M/C797S, read-out: IC50, growth inhibition, Δ19Del/T790M/C797S
[11] = BaF3 cells stably transfected with EGFR Δ19Del/T790M, read-out: IC50, growth inhibition, Δ19Del/T790M
[12] = BaF3 cells stably transfected with EGFR L858R, read-out: IC50, growth inhibition, L858R
[13] = BaF3 cell line stably transfected with EGFR L858R/T790M/C797S, read-out: L858R/T790M/ C797S growth inhibitory activity IC50
[14] = BaF3 cell line stably transfected with EGFR Δ19Del, read-out: Δ19Del growth inhibitory activity IC50
[15] = BaF3 cell line stably transfected with EGFR L858R/T790M, read-out: L858R/ T790M growth inhibitory activity IC50
[16] = BaF3 cell line stably transfected with EGFR Δ19Del/T790M/C797S, read-out: Δ19Del/T790M/ C797S growth inhibitory activity IC50
[17] = BaF3 cell line stably transfected with EGFR Δ19Del/T790M, read-out: Δ19Del/ T790M growth inhibitory activity IC50
[18] = BaF3 cell line stably transfected with EGFR L858R, read-out: L858R growth inhibitory activity IC50

SMILES	IC50 [1, 7] [nM]	IC50 [2, 8] [nM]	IC50 [3, 9] [nM]	IC50 [4, 10] [nM]	IC50 [5, 11] [nM]	IC50 [6, 12] [nM]	IC50 [1, 13] [nM]	IC50 [2, 14] [nM]	IC50 [3, 15] [nM]	IC50 [4, 16] [nM]	IC50 [5, 17] [nM]	IC50 [6, 18] [nM]
CCc1cc(Nc2ncc(Br)c(Nc3ccc4nccnc4c3N(C)S(=O)(=O)C(F)(F)F)n2)c(OC)cc1N1CCC(N2CCN(C)CC2)CC1 [Compound I-125]	50 to 500	500 to 2500	50 to 500	≤ 50	50 to 500	50 to 500						
CCc1cc(Nc2ncc(Cl)c(Nc3ccc4nccnc4c3N(C)S(=O)(=O)C3CC3)n2)c(OC)cc1N1CCC(N(C)C)C1 (stereo not drawn) [Compound I-123]	50 to 500	50 to 500	≤ 50	≤ 50	50 to 500	50 to 500						
CN1CCc2cc(F)c(Nc3ncc(Br)c(Nc4ccc5nccnc5c4N(C)S(C)(=O)=O)n3)cc2C1 [Compound I-87]	≤ 50	≤ 50	50 to 500	≤ 50	50 to 500	≤ 50						
CN1CCN(C(=O)c2cccc(Nc3ncc(Br)c(Nc4ccc5nccnc5c4N(C)S(C)(=O)=O)n3)c2)CC1 [Compound I-80]	50 to 500	50 to 500	≤ 50	500 to 2500	50 to 500	50 to 500						
C=Cc1cc(Nc2ncc(Br)c(Nc3ccc4nccnc4c3N(C)S(C)(=O)=O)n2)c(OC(F)(F)F)cc1N1CCC(N2CCN(C)CC2)CC1 [Compound I-9]	≤ 50	≤ 50	≤ 50	≤ 50	≤ 50	≤ 50						

Further lines, results first:

IC50 [1, 7] [nM]	IC50 [2, 8] [nM]	IC50 [3, 9] [nM]	IC50 [4, 10] [nM]	IC50 [5, 11] [nM]	IC50 [6, 12] [nM]	IC50 [1, 13] [nM]	IC50 [2, 14] [nM]	IC50 [3, 15] [nM]	IC50 [4, 16] [nM]	IC50 [5, 17] [nM]	IC50 [6, 18] [nM]	SMILES
						≤ 50	50 to 500	≤ 50	≤ 50	50 to 500	50 to 500	CC(C)n1cc(Nc2ncc(Br)c(Nc3ccc4nccnc4c3N(C)S(C)(=O)=O)n2)cn1 [Compound I-388]
						≤ 50	≤ 50	≤ 50	≤ 50	≤ 50	≤ 50	CCc1cc(Nc2ncc(Br)c(Nc3ccc4nccnc4c3NS(=O)(=O)C(C)C)n2)c(OC)cc1N1CCC(N2CCN(C)CC2)CC1 [Compound I-415]
50 to 500	50 to 500	50 to 500	≤ 50	≤ 50	50 to 500							CCc1cc(Nc2ncc(Br)c(Nc3ccc4nccnc4c3N(C3CC3)S(C)(=O)=O)n2)c(OC(F)(F)F)cc1N1CCC(N2CCN(C)CC2)CC1 [Compound I-156]
≤ 50	50 to 500	≤ 50	≤ 50	≤ 50	50 to 500							CCc1cc(Nc2ncc(Br)c(Nc3ccc4nccnc4c3N(CC)S(C)(=O)=O)n2)c(OC)nc1N1CCC(N2CCN(C)CC2)CC1 [Compound I-212]
						≤ 50	50 to 500	≤ 50	≤ 50	≤ 50	≤ 50	COc1cc(N2CCN(C)CC2)c(C)cc1Nc1ncc(Br)c(Nc2ccc3nccnc3c2N(C2CC2)S(C)(=O)=O)n1 [Compound I-309]
						50 to 500	50 to 500	50 to 500	50 to 500	50 to 500	50 to 500	CCc1cc(Nc2nc(Nc3ccc4nccnc4c3N(C)S(C)(=O)=O)c3sccc3n2)c(OC)cc1N1CCC(N(C)C)C1 (stereo not drawn) [II-1-17]
						50 to 500	500 to 2500	50 to 500	50 to 500	50 to 500	50 to 500	CCc1cc(Nc2ncc(Cl)c(Nc3ccc4nccnc4c3N(C)S(C)(=O)=O)n2)c(OC)cc1C(=O)N1CCC(N2CCN(C)CC2)CC1 [Compound I-358]
